The values that follow are results of earlier work, collected in patent US4127533A, “Novel octapeptides, intermediates therefor, and compositions and methods employing said octapeptides” (priority 1977, dated 1978).

Series [1] has as its system rat. Particulars: injected directly into the brain of the rat.
In series [2] the test system is brain opiate receptor sites.

“H-Tyr-Gly-Gly-Phe-Met-OH [methionine enkephalin]”: in series [1], the analgesic activity entry is “only weak analgesic agent of short duration”. The “binding to partially purified brain opiate receptor sites” value in series [2] was “binds stereo-specifically”.
